The source of these data is patent US20050153989A1, “Pyrrolopyrimidine derivatives and analogs and their use in the treatment and prevention of diseases” (Ambit Biosciences Corporation, priority 2004, published 2005).

SMILES strings stand for the structures.

Assay [1] has as its target T1, EGFR (Homo sapiens, UniProt P00533). Kind of assay: EGFR autophosphorylation (tyrosine 1173) inhibition assay in lung cancer cell line A459. The format is cell-based. Also noted: 3.6×10^5 A549 cells/well in a 24-well culture plate; endogenous in cells. To be noted: EGF-induced phosphorylation of tyrosine 1173. The method, then: (§1) Cells were stimulated by the addition of 5 ng/ml of EGF for five minutes. Cells were then washed with cold phosphate buffered saline (PBS), and incubated for 30 minutes at 4° C. in lysis buffer. […] Total EGFR levels were also measured in the same manner to control for protein level differences.

Assay [2] addresses T1, EGFR. Kind of assay: EGFR autophosphorylation (tyrosine 1173) inhibition assay in A431 cells. The format is cell-based. Also noted: 4×10^4 A431 cells/well in a 96-well culture plate; endogenous in cells; host or cells: A431. The settings on record: Epidermoid Carcinoma Cell Line A431; EGF-induced phosphorylation of tyrosine 1173. The method, then:
as §1

In assay [3] the target is T1, EGFR. Kind of assay: Binding constant (Kd) measurement, T7 phage-displayed kinase competition binding, wildtype EGFR. The arrangement: made in house. To be noted: read-out: Kd for EGFR (DKIN) Binding. An excerpt:
Methods for measuring binding affinities for interactions between small molecules and kinases including FLT3, c-KIT, ABL(T334I) [a.k.a. […] The components of the assays include human kinases expressed as fusions to T7 bacteriophage particles and immobilized ligands that bind to the ATP site of the kinases. […] If the test compound binds the kinase it competes with the immobilized ligand and prevents binding to the solid support. […] The results are read out by quantitating the amount of fusion protein bound to the solid support, which is accomplished by either traditional phage plaque assays or by quantitative PCR (qPCR) using the phage genome as a template.
The term “ND” represents non-determined values.
To measure the Kd values, the T7 phage displaying human EGFR were incubated with an […] affinity matrix in the presence of various concentrations of a soluble (non-immobilized) compounds provided herein, as described in detail herein.

T1 sequence (P00533 25-1210): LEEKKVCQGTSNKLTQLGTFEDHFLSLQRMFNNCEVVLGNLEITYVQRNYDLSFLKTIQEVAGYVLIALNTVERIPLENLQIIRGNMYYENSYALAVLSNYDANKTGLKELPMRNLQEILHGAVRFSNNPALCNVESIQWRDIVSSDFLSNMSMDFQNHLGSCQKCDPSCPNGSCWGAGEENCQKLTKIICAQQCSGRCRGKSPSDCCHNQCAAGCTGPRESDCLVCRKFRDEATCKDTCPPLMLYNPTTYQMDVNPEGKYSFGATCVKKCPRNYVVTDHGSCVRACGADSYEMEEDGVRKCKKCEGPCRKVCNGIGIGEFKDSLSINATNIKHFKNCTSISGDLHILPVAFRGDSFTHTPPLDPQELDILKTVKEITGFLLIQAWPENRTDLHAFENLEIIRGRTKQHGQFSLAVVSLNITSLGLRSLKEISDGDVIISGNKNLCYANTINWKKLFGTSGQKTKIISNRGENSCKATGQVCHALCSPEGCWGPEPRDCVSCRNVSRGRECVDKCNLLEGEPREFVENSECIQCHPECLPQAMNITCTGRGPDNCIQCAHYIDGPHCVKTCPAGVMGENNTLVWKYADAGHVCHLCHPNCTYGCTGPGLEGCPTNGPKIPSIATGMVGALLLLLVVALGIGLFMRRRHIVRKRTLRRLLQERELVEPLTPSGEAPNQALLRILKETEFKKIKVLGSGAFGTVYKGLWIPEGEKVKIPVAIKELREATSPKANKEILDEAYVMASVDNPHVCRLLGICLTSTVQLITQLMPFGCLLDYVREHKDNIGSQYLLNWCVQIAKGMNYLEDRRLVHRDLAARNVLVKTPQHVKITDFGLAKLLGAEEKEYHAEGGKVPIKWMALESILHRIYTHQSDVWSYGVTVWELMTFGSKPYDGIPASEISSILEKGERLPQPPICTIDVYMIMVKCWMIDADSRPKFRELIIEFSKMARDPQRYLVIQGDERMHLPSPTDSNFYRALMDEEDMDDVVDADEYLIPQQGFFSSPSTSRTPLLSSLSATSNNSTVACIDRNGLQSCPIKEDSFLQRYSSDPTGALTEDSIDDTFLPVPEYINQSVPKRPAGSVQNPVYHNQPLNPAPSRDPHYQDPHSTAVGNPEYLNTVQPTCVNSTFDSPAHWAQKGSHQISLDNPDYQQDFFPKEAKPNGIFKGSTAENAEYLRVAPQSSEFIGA

For orientation: IC50 means the midpoint of a concentration-inhibition curve. Higher therefore signals lower potency. What is called Kd is the constant that tells how readily two partners part at equilibrium. Turning to `C[C@H](Nc1ncnc2c1[nH]c1ccccc12)c1ccccc1` [Compound C2], the IC50 lay within 1000 to 10000 nM against EGFR [1] and 100 to 1000 nM against EGFR [2]. Besides, on EGFR [3], the Kd is less than 100 nM.
As to `Fc1ccc(Nc2ncnc3c2[nH]c2ccccc23)cc1Cl` [Compound C14], the Kd at EGFR [3] was in the range of 100 to 1000 nM.
Still for that read-out and setting: then `COc1ccc(-c2cc3c(N[C@@H](C)c4ccccc4)ncnc3n2C)cc1` [Compound D9], with more than 10000 nM.
In the case of `COc1ccc(-c2cc3c(N[C@@H](C)c4ccccc4)ncnc3n2C(C)C)cc1` [Compound D10], the results for the IC50 on EGFR [1] and against EGFR [2] were less than 100 nM and 100 to 1000 nM, respectively. On EGFR [3], the Kd is less than 100 nM.
Regarding `Clc1ccc(Nc2ncnc3[nH]cnc23)cc1Cl` [Compound G3], the Kd on EGFR [3] fell in the range of 1000 to 10000 nM.
For the molecule `O=C(O)c1cccc(Nc2ncnc3[nH]cnc23)c1` [Compound G6], the Kd at EGFR [3] was more than 10000 nM.
On the same count and under the same terms, the result for `Clc1cccc(Nc2ncnc3[nH]cnc23)c1` [Compound G12] reads more than 10000 nM; that for `COc1cccc(CNc2ncnc3nc[nH]c23)c1` [Compound G15], more than 10000 nM.
In turn, `C[C@@H](Nc1ncnc2oc(-c3ccccc3)c(-c3ccccc3)c12)c1ccccc1` [Compound H1, (5,6-Diphenyl-furo[2,3-d]pyrimidin-4-yl)-(1-phenyl-ethyl)-amine] showed an IC50 against EGFR [2] of 100 to 1000 nM. In addition, on EGFR [3], the Kd is less than 100 nM.
The like results for `CC(Nc1ncnc2oc(-c3ccccc3)c(-c3ccccc3)c12)c1ccccc1` (centres unmarked) [Compound H3] were, in that order, 100 to 1000 nM and less than 100 nM.
`COc1ccc(-c2nc3c(NCc4cccc(C)c4)ncnc3[nH]2)cc1` [Compound I4]: the Kd on EGFR [3] lay within 100 to 1000 nM.
On the same count and under the same terms, the result for `COc1ccc(-c2cc3c(Nc4cccc(C(F)(F)F)c4)ncnc3[nH]2)cc1` [Compound I5] reads less than 100 nM.
The same measure, in the same setting: the result for `COC(=O)C(Nc1ncnc2[nH]c(-c3ccc(OC)cc3)cc12)c1ccccc1` (centres unmarked) [Compound I7] reads 100 to 1000 nM; that for `COc1ccc(-c2cc3c(NCCc4ccccc4)ncnc3[nH]2)cc1` [Compound I8], 100 to 1000 nM; that for `C[C@H](Nc1ncnc2[nH]c(-c3ccc(O)cc3)cc12)c1ccccc1` [Compound I9], 1000 to 10000 nM.
The same measure, in the same setting: the result for `COc1cccc(-c2cc3c(NCc4cccc(Cl)c4)ncnc3[nH]2)c1` [Compound I11] reads less than 100 nM.
With `COc1cccc(-c2cc3c(NCc4cccc(C)c4)ncnc3[nH]2)c1` [Compound I12], the Kd on EGFR [3] lay in the range of 100 to 1000 nM.
On the same count and under the same terms, the result for `COc1cccc(-c2cc3c(NCc4ccccc4)ncnc3[nH]2)c1` [Compound I14] reads less than 100 nM.
The same measure, in the same setting: the result for `COc1cccc(-c2cc3c(NCc4ccc(Cl)cc4)ncnc3[nH]2)c1` [Compound I16] reads less than 100 nM; that for `COc1ccc(C(C)Nc2ncnc3[nH]c(-c4cccc(OC)c4)cc23)cc1` (centres unmarked) [Compound I17], 1000 to 10000 nM; that for `CC(Nc1ncnc2[nH]c(-c3ccc(O)cc3)cc12)c1ccccc1` (centres unmarked) [Compound I18], less than 100 nM.
Consider `COc1cccc(CNc2ncnc3[nH]c(-c4ccc(O)cc4)cc23)c1` [Compound I19], for which the Kd at EGFR [3] is 100 to 1000 nM.
Same read-out and setting: the result for `Cc1cccc(CNc2ncnc3[nH]c(-c4ccc(O)cc4)cc23)c1` [Compound I20] reads less than 100 nM.
Still for that read-out and setting: the result for `Oc1ccc(-c2cc3c(NCc4ccccc4)ncnc3[nH]2)cc1` [Compound I21] reads less than 100 nM; that for `Oc1ccc(-c2cc3c(NCCc4ccccc4)ncnc3[nH]2)cc1` [Compound I22], less than 100 nM; that for `COc1ccc(C(C)Nc2ncnc3[nH]c(-c4ccc(O)cc4)cc23)cc1` (centres unmarked) [Compound I23], 1000 to 10000 nM.
Turning to `C[C@H](Nc1ncnc2[nH]c(-c3ccc(Br)cc3)cc12)c1ccccc1` [Compound I24], the Kd at EGFR [3] was less than 100 nM.
On to `COc1ccc(Cn2c(-c3ccc(OC)cc3)cc3c(Nc4cc(C)cc(C)c4)ncnc32)cc1` [Compound K6], for which the Kd at EGFR [3] lay within 1000 to 10000 nM.
Same read-out and setting: then `COc1ccc(Cn2c(-c3ccc(OC)cc3)cc3c(Nc4cccc(O)c4)ncnc32)cc1` [Compound K7], with 1000 to 10000 nM.
As to `COc1ccc(Cn2c(-c3ccc(OC)cc3)cc3c(Nc4cccc(F)c4)ncnc32)cc1` [Compound K8], the Kd at EGFR [3] was 1000 to 10000 nM.
On the same count and under the same terms, the result for `COc1ccc(Cn2c(-c3ccc(OC)cc3)cc3c(NCc4cccc(Cl)c4)ncnc32)cc1` [Compound M20] reads 1000 to 10000 nM; that for `COc1ccc(-c2cc3c(N[C@H](C)c4ccccc4)ncnc3[nH]2)cc1` [Compound M21], less than 100 nM.
On the same count and under the same terms, the result for `COc1ccc(-c2cc3c(N[C@H](C)c4ccccc4)nc(N[C@@H](C)c4ccccc4)nc3[nH]2)cc1` [Compound M22] reads less than 100 nM.
Still for that read-out and setting: the result for `COc1ccc(-c2cc3c(NC(C)c4ccccc4)ncnc3[nH]2)cc1` (centres unmarked) [Compound M24] reads 100 to 1000 nM; that for `Cn1c(-c2ccc(O)cc2)cc2c(Nc3cccc(Br)c3)ncnc21` [Compound Q7], 1000 to 10000 nM; that for `COc1ccc(-c2cc3c(Nc4cc(Cl)cc(Cl)c4)ncnc3[nH]2)cc1` [Compound S2], 100 to 1000 nM.
Turning to `COc1ccc(-c2cc3c(Nc4cccc(C(=O)O)c4)ncnc3[nH]2)cc1` [Compound S3], the Kd on EGFR [3] is less than 100 nM.
The same measure, in the same setting: the result for `COC(=O)c1cccc(Nc2ncnc3[nH]c(-c4ccc(OC)cc4)cc23)c1` [Compound S4] reads less than 100 nM; that for `COc1ccc(-c2cc3c(Nc4ccc(Cl)c(C(F)(F)F)c4)ncnc3[nH]2)cc1` [Compound S8], less than 100 nM.
`COc1ccc(-c2cc3c(Nc4cccc(C)c4)ncnc3[nH]2)cc1` [Compound S10] yielded an IC50 against EGFR [2] of less than 100 nM. Further, the Kd on EGFR [3] was less than 100 nM.
As for `COc1cccc(-c2cc3c(Nc4cc(C)cc(C)c4)ncnc3[nH]2)c1` [Compound S13], the equilibrium dissociation constant (Kd) on EGFR [3] was less than 100 nM.
Same read-out and setting: the result for `COC(=O)c1cccc(Nc2ncnc3[nH]c(-c4cccc(OC)c4)cc23)c1` [Compound S15] reads more than 10000 nM.
On the same count and under the same terms, then `COc1cccc(-c2cc3c(Nc4cccc(O)c4)ncnc3[nH]2)c1` [Compound S16], with less than 100 nM; and `COc1cccc(-c2cc3c(Nc4ccc(Cl)c(Cl)c4)ncnc3[nH]2)c1` [Compound S19], with less than 100 nM.
Take `COc1cccc(Nc2ncnc3[nH]c(-c4cccc(OC)c4)cc23)c1` [Compound S21]: the Kd at EGFR [3] was less than 100 nM.
As to `COc1cccc(-c2cc3c(Nc4cccc(F)c4)ncnc3[nH]2)c1` [Compound S22], the Kd on EGFR [3] was less than 100 nM.
The same measure, in the same setting: the result for `COc1cccc(-c2cc3c(Nc4ccc(Cl)cc4)ncnc3[nH]2)c1` [Compound S23] reads less than 100 nM; that for `COc1cccc(-c2cc3c(Nc4ccc(F)cc4)ncnc3[nH]2)c1` [Compound S24], less than 100 nM.
On the same count and under the same terms, then `COc1cccc(-c2cc3c(Nc4ccccc4)ncnc3[nH]2)c1` [Compound S27], with less than 100 nM; and `COc1cccc(-c2cc3c(Nc4ccc(C)cc4)ncnc3[nH]2)c1` [Compound S28], with less than 100 nM.
The same measure, in the same setting: then `Cc1cc(C)cc(Nc2ncnc3[nH]c(-c4ccc(O)cc4)cc23)c1` [Compound S30], with less than 100 nM.
As to `O=C(O)c1cccc(Nc2ncnc3[nH]c(-c4ccc(O)cc4)cc23)c1` [Compound S31], on EGFR [3], the Kd was in the range of 1000 to 10000 nM.
The same measure, in the same setting: then `COC(=O)c1cccc(Nc2ncnc3[nH]c(-c4ccc(O)cc4)cc23)c1` [Compound S32], with 100 to 1000 nM.
In the case of `Oc1ccc(-c2cc3c(Nc4cccc(O)c4)ncnc3[nH]2)cc1` [Compound S33], the Kd at EGFR [3] was less than 100 nM.
Same read-out and setting: the result for `Oc1ccc(-c2cc3c(Nc4cccc(F)c4)ncnc3[nH]2)cc1` [Compound S35] reads less than 100 nM.
For the molecule `COc1cccc(Nc2ncnc3[nH]c(-c4ccc(O)cc4)cc23)c1` [Compound S36], on EGFR [3], the Kd is less than 100 nM.
Still for that read-out and setting: then `Oc1ccc(-c2cc3c(Nc4ccc(F)cc4)ncnc3[nH]2)cc1` [Compound S37], with less than 100 nM; and `Clc1cc(Cl)cc(Nc2ncnc3[nH]c(-c4ccc(Br)cc4)cc23)c1` [Compound S38], with 1000 to 10000 nM.
Molecule `Cc1cc(C)cc(Nc2ncnc3[nH]c(-c4ccc(Br)cc4)cc23)c1` [Compound S39] registered an IC50 at EGFR [2] of 100 to 1000 nM. The Kd at EGFR [3] was in the range of 100 to 1000 nM.
In the case of `COc1cccc(Nc2ncnc3[nH]c(-c4ccc(Br)cc4)cc23)c1` [Compound S42], the Kd on EGFR [3] was 100 to 1000 nM.
